Results on six molecules are retold here after US20030228672A1, “Sorbitol dehydrogenases of ketogulonigenium species, genes and methods of use thereof” (priority 2002, published 2003).

The test system of assay [1] is dehydrogenase enzyme activity (SDH) of K. robustum ADM X6L. Put plainly: Enzyme activity in cellular fractions, Ferric-Dupanol method (localization). The assay is classed as biochemical, Ketogulonigenium robustum ADM X6L. How it is done:
(§1) Cells were harvested by centrifugation at 12,000 g for 10 min, washed once with 10 mM Tris·HCl buffer (pH 8.0) and disrupted by sonication in a Branson Sonifier 450 for 15 min at 50% duty cycle in ice. The homogenate thus prepared was centrifuged at 12,000 g for 5 min to remove the cell debris. The resulting supernatant was centrifuged at 100,000 g for 90 min to get the supernatant as soluble fraction and the precipitate as crude membrane fraction. The crude membrane fraction was solubilized with 1.5% n-octyl glucoside by stirring for 2 hours at 4° C. The resultant suspension was centrifuged at 12,000 g for 10 min to give a supernatant, designated as solubilized membrane fraction.
(§2) Enzyme activity was determined also by the Ferric-Dupanol method (Wood, W. A. et al., Meth. Enzymol., 5, 287 (1962)). The enzyme was preincubated for 5 min at 25° C. The reaction was started by addition of 10 mM (final conc.) potassium ferricyanide and 250 mM (final conc.) D-sorbitol, L-sorbose, or glyoxal. After an appropriate time, the reaction was stopped by adding the ferric sulfate-Dupanol solution (Fe2(SO4)3.nH2O 5 g/l, Dupanol (sodium lauryl sulfate) 3 g/l and 85% phosphoric acid 95 ml/l) and the absorbance of the Prussian color developed was determined at 660 nm in a spectrophotometer.
(§3) Enzyme activities towards D-sorbitol, L-sorbose and glyoxal in different cellular fractions were determined for enzyme localization in K. robustum ADM X6L and Ketogulonigenium sp. ADM 291-19. In both cases, most of the enzyme activity detected in crude cell extract was found in the soluble fraction and the activity in solubilized membrane fraction was negligible when assayed with Ferric-Dupanol method.

In assay [2] the test system is dehydrogenase enzyme activity (SDH) of Ketogulonigenium sp. ADM 291-19. The description is as above. The format is biochemical. On the procedure: as §1, §2, §3
Assay [3] relates to SDH. The assay can be described thus: SDH activities in osmotic shock fractions, PMS-DCIP method. The assay is classed as biochemical. Conditions: for SDH activity, Osmotic Shock Fluid: Osmotic Shock Fluid (periplasmic fraction); for SDH activity, Pellet Sonicate: Pellet Sonicate (cytoplasm and cytoplasmic membrane); for SDH activity, Tris-Sucrose Wash: Tris-Sucrose Wash (periplasmic fraction). On the procedure:
(§4) For more detailed localization study, periplasmic fraction was enriched by the method of osmotic shock (Neu, H. C. and Heppel, L. A., J. Biol. Chem., 240:3685 (1965)). Wet cells were resuspended at about 0.1 g/ml in 20% sucrose-0.03 M Tris·HCl buffer (pH 8.0) at room temperature. Di-sodium EDTA was added to 1 mM and the flask was shaken at 180 rpm at room temperature for 10 min. After centrifugation at 16,000 g for 20 min at 4° C., the supernatant was removed and the pellet was rapidly mixed with cold distilled water of the same volume as the original cell suspension and shaken in ice bucket in a shaker for 10 min. The mixture was centrifuged again to obtain the supernatant called “osmotic shock fluid”. The pellet was sonicated in the same buffer, centrifuged and the supernatant was obtained as “pellet sonicate”.
(§5) The dehydrogenase enzyme activity was assayed spectrophotometrically using 2,6-dichlorophenol indophenol (DCIP) as an artificial electron acceptor and phenazine methosulphate (PMS) as an electron mediator. The reaction mixture contained 50 mM Tris·HCl buffer (pH 8.0), 10 mM MgCl2, 5 mM CaCl2, 5 mM KCN, 0.1 mM PMS, 0.12 mM DCIP, a substrate as D-sorbitol (250 mM), L-sorbose (250 mM) or glyoxal (50 mM) and enzyme solution in a total volumn of 1.0 ml. The rate of decrease in absorbance at 522 nm was determined. One unit of enzyme activity was defined as the amount of enzyme catalyzing reduction of 1 μmol of DCIP per minute.
(§6) For further localization of the enzymes to periplasm or cytoplasm, periplasm was enriched by osmotic shock method as described in Step 3 of Example 1. In this method, the Tris-Sucrose wash and the osmotic shock fluid represent the periplasmic fraction and the pellet sonicate represents the cytoplasm and the cytoplasmic membrane. […] The remaining activity in pellet sonicate could be due to the incomplete release of periplasm by osmotic shock. Typical enzyme activity assay for SDH and β-galactosidase for fractions obtained by osmotic shock fractionation is shown in Table 3.

Assay [4] has as its system purified SDH of K. robustum ADM X6L. The assay can be described thus: Substrate specificity of purified SDH, PMS-DCIP method. The assay is classed as biochemical, Ketogulonigenium robustum ADM X6L. The settings on record: substrate 250 mM, 1-Propanol = 100. How it is done:
as §5
(§7) First, the periplasmic proteins from the cells of K. robustum ADM X6L and Ketogulonigenium sp. ADM 291-19 obtained in Step 1 of Example 1 were prepared by osmotic shock fractionation as described in Step 3 of Example 1. About 50 ml of osmotic shock fluid containing periplasmic proteins was loaded onto a DEAE-TSK 650 (S) (Merck) column (2.5×15 cm) previously equilibrated with 10 mM Tris·HCl buffer (pH 8.0). The column was first washed with 80 ml of 10 mM Tris·HCl buffer (pH 8.0) containing 0.1 M NaCl, followed by a gradient elution with 600 ml of the same buffer containing 0.1-0.5 M NaCl. Fractions containing 5 ml of eluant were collected and assayed for the SDH enzyme activities with D-sorbitol, L-sorbose and glyoxal as substrate. […] At about 0.15 M NaCl, eluted red fractions that probably contained cytochrome c.
(§8) Active fractions eluted from DEAE column were pooled and further purified by gel filtration column chromatography. The active fractions were concentrated by about 20 fold with ultrafiltration in Centricon 30 (Amicon). The concentrate was loaded onto Superose 12 (Pharmacia) and eluted isocratically with 50 mM sodium phosphate buffer (pH 7.0) containing 0.15 M NaCl.
(§9) The purified enzymes were active toward D-sorbitol, L-sorbose and glyoxal.

The subject of assay [5] is purified SDH of Ketogulonigenium sp. ADM 291-19. The assay is described as above. The assay is classed as biochemical. The settings on record: substrate 250 mM, 1-Propanol = 100. How it is done:
The dehydrogenase enzyme activity was assayed spectrophotometrically using 2,6-dichlorophenol indophenol (DCIP) as an artificial electron acceptor and phenazine methosulphate (PMS) as an electron mediator. […] The rate of decrease in absorbance at 522 nm was determined. One unit of enzyme activity was defined as the amount of enzyme catalyzing reduction of 1 μmol of DCIP per minute.
as §7, §8, §9

Assay [6] concerns purified SDH enzymes. The assay can be described thus: Activity of the purified SDH enzymes toward substrates. The format is biochemical, K. robustum ADM X6L and Ketogulonigenium sp. ADM 291-19. Conditions: purified SDH enzymes of both strains. On the procedure:
as §7, §8, §9

Assay [7] has as its system dehydrogenase enzyme activity in cellular fractions. The assay can be described thus: Enzyme assays with cellular fractions employing nicotinamide cofactors. The assay is classed as biochemical, K. robustum ADM X6L and Ketogulonigenium sp. ADM 291-19. Conditions: different substrates, either strain.
The test system of assay [8] is β-galactosidase. The assay can be described thus: β-Galactosidase activity in osmotic shock fractions (intracellular enzyme marker). The assay is classed as biochemical. The settings on record: High Sensitivity β-Galactosidase Assay Kit. On the procedure: as §4, §6
The test system of assay [9] is K. robustum ADM X6L transformants. Put plainly: Bioconversion of D-sorbitol by transformants, HPLC of culture supernatant. The format is cell-based, Ketogulonigenium robustum ADM X6L. The settings on record: D-sorbitol as substrate. How it is done:
(§10) For expression of the three SDH genes in K. robustum strains, the genes with their own promoters were subcloned into the vector, pXH2/K5. These plasmids were transformed into the strains, K. robustum ADM X6L and 86-96 (NRRL B-21630), by electroporation. In this case, gene dosage effect may be expected due to the apparent high copy number of the plasmid pXH2/K5. The transformants were analyzed by HPLC for improved conversion activity upon overexpression of each SDH gene using D-sorbitol and L-sorbose as substrate.
(§11) The effect of overexpression of the three SDH genes in bioconversion activity was analyzed by HPLC analysis of the product profile of the culture supernatant of transformants in a medium containing D-sorbitol or L-sorbose as substrate. The transformants were cultivated overnight in RM medium containing 20 μg/ml of Kanamycin. This overnight culture was used to inoculate the 25 ml RM medium (supplemented with 20 μg/ml of Kanamycin) containing 20 g/l of D-sorbitol or 20 g/l of L-sorbose as substrate instead of mannitol. The culture supernatant samples were taken in a 12-hour interval and were analyzed by HPLC (Gilson HPLC with RI detector (ERC-7515A, ERC Inc.)) equipped with Asted XL automatic sample injector. Samples were loaded on two 2 mm×300 mm×7.8 mm Aminex HPX-87H columns (BioRad) arranged in series to provide a total column length of 600 mm. The column was run at 50° C. at a flow rate of 0.5 ml/min. The peaks were identified and the concentration was determined by comparison with those of the standards using glycerol as internal standard.
K. robustum ADM X6L transformants harboring the pXSDH1, pXSDH2 or pXSDH3 were cultivated with D-sorbitol or L-sorbose as substrate. HPLC analysis of the products from D-sorbitol (Table 10) or L-sorbose (Table 11) is shown below. A transformant harboring pXH2 served as control.

Assay [10] has the same test system. Put plainly: Bioconversion of L-sorbose by transformants, HPLC of culture supernatant. The assay is classed as cell-based, Ketogulonigenium robustum ADM X6L. How it is done:
as §10
as §11, with “Samples were loaded on two 2 mm×300 mm×7.8 mm Aminex HPX-87H columns (BioRad) arranged in series to provide a total column length of 600 mm. The column was run at 50° C. at a flow rate of 0.5 ml/min.” left out, “standard. […]” for “standard.”

As for `O=C(CO)[C@@H](O)[C@H](O)[C@@H](O)CO` [L-sorbose], in assay [1], the “enzyme activity, Cell Free Extract” value is given as 0.64 ΔOD/min/4 μl enzyme; the “enzyme activity, Membrane Fraction” value is given as 0.01 ΔOD/min/4 μl enzyme; the “enzyme activity, Soluble Fraction” value was 0.61 ΔOD/min/4 μl enzyme. Moreover, in assay [2], the “enzyme activity, Cell Free Extract” value was 0.55 ΔOD/min/2 μl enzyme; the “enzyme activity, Membrane Fraction” value was 0.00 ΔOD/min/2 μl enzyme; the “enzyme activity, Soluble Fraction” value was 0.53 ΔOD/min/2 μl enzyme. For the same molecule, in assay [3], the “SDH activity, Osmotic Shock Fluid” value is listed as 0.20 ΔOD/min/50 μl enzyme; the “SDH activity, Pellet Sonicate” value is 0.43 ΔOD/min/50 μl enzyme; the “SDH activity, Tris-Sucrose Wash” value is 0.14 ΔOD/min/50 μl enzyme. Also, the “% relative activity, ADM X6L” value in assay [4] stood at 8.7%. Further, the “% relative activity, ADM291-19” value in assay [5] is recorded as 8.8%. In addition, the “activity of the purified enzymes toward the substrate (in words)” value in assay [6] is given as “active”.
`NC(=O)c1ccc[n+]([C@@H]2O[C@H](COP(=O)([O-])OP(=O)(O)OC[C@H]3O[C@@H](n4cnc5c(N)ncnc54)[C@H](OP(=O)(O)O)[C@@H]3O)[C@@H](O)[C@H]2O)c1` [NADP]: the “nicotinamide cofactor dependence (in words)” value in assay [7] is listed as “did not show any sign of nicotinamide cofactor dependence”.
Regarding `O=CC=O` [glyoxal], in [1], the “enzyme activity, Cell Free Extract” value is 0.39 ΔOD/min/4 μl enzyme; the “enzyme activity, Membrane Fraction” value is 0.00 ΔOD/min/4 μl enzyme; the “enzyme activity, Soluble Fraction” value is 0.50 ΔOD/min/4 μl enzyme. In addition, in [2], the “enzyme activity, Cell Free Extract” value is 0.61 ΔOD/min/2 μl enzyme; the “enzyme activity, Membrane Fraction” value is 0.00 ΔOD/min/2 μl enzyme; the “enzyme activity, Soluble Fraction” value was 0.52 ΔOD/min/2 μl enzyme. Further, in [3], the “SDH activity, Osmotic Shock Fluid” value was 0.43 ΔOD/min/50 μl enzyme; the “SDH activity, Pellet Sonicate” value was 0.76 ΔOD/min/50 μl enzyme; the “SDH activity, Tris-Sucrose Wash” value is reported as 0.36 ΔOD/min/50 μl enzyme. Also, in assay [4], the “% relative activity, ADM X6L” value is 15.1%. In addition, the “% relative activity, ADM291-19” value in assay [5] is 16.1%. Besides, the “activity of the purified enzymes toward the substrate (in words)” value in [6] was “active”.
Consider `NC(=O)c1ccc[n+]([C@@H]2O[C@H](COP(=O)([O-])OP(=O)(O)OC[C@H]3O[C@@H](n4cnc5c(N)ncnc54)[C@H](O)[C@@H]3O)[C@@H](O)[C@H]2O)c1` [AND], for which the “nicotinamide cofactor dependence (in words)” value in [7] is reported as “did not show any sign of nicotinamide cofactor dependence”.
On to `O=S1(=O)OC(c2ccc(O)c(Cl)c2)(c2ccc(O[C@@H]3O[C@H](CO)[C@H](O)[C@H](O)[C@H]3O)c(Cl)c2)c2ccccc21` (stereo partly drawn) [chlorophenol red-β-D-galactopyranoside], for which the “β-Galactosidase Activity, Osmotic Shock Fluid” value in assay [8] (Osmotic Shock Fluid) was 0.057 nmol/min. Also, in assay [8] (Pellet Sonicate), the “β-Galactosidase Activity, Pellet Sonicate” value came to 2.2 nmol/min. The “β-Galactosidase Activity, Tris-Sucrose Wash” value in assay [8] (Tris-Sucrose Wash) is given as 0.043 nmol/min.

B1: SDH2: sorbitol dehydrogenase of K. robustum ADM 86-96, 579 amino acids (SEQ ID NO:7) (protein, listed as Ketogulonigenium sp.)
chain: MKTKSFLFAGVAALASYGTIALADVTPVTDELLANPPAGEWISYGRNQENYRHSPLNQITPENVGQLQLVWARGMNAGKVQVTPLIHDGVMYLANPGDIIQAIDAKTGDLIWEHRRQLPNVATLNSFGEPIRGIALYGTNVYFVSWDNHLVALDAATGQVTFDVDRGQGEDMVSNSSGPIVANGVIVAGSTCQYSPFGCFVSGHDATTGEELWRNYFIPKAGEEGDETWGNDYEARWMTGVWGQITYDPVTNLVFYGSSAVGPASETQRGTTGGTMYGTNTRFAVRPDTGEIVWRHQTLPRDNWDQECTFEMMVANVDVQPSADMDGLKSINPNAATGERRVLTGVPCKTGTMWQFDAETGEFLWARDTNYQNMISSIDETGLVTVNEDIILKDLDTDYRICPTFLGGRDWPSASLNPDSGIYFIPLNNACADLAAVDQEFTAMDVYNTSATYLLAPEKENMGRIDAIDISTGKTLWSVERLASNYSPVLSTAGGVLFNGGSDRYFRALSEETGETLWQTRLATVASGQAVSYELDGVQYIAIAGGGTTYGAVQNRPLAEPVDSTSIGNAVYVFALPQQ
For B1, in assay [9], the “products formed upon overexpression with D-sorbitol as substrate (in words)” value is given as “formation of 2-keto-D-gluconic acid (2KDG) as well as 2KLG”. The “improvement of 2KLG production from L-sorbose upon overexpression” value in assay [10] (flask scale experiment, versus pXH2 control) was 2-3 times. For the same molecule, the “2KLG production from L-sorbose upon overexpression (in words)” value in [10] (flask scale experiments) is on record as “significantly improved”.
